# Data: article PMC5484141, “Asperentin B, a New Inhibitor of the Protein Tyrosine Phosphatase 1B” (Marine Drugs, 2017)
# “And” between values parts separate entries of the source, which are not always exact repeats. Equal entries are not always repeated. “Also recorded” adds a separate entry of the source. Where two headings read alike, the source gives them in different places.
# Key:
# leukemia cell line P388 = tested on: leukemia cell line P388; parameters: method as in PMID 17958319; settings: cited from earlier work
# PTP1B [1] = tested on: PTP1B; parameters: method as in PMID 25819098; settings: read-out: IC50 value against PTP1B; cited from earlier work
# Xanthomonas campestris = test: Antimicrobial activity against Xanthomonas campestris; format: cell-based; settings: concentrations of 100 μM (stated for 1)
# Experimental: (§1) Antimicrobial activities of compounds 1 and 2 against Bacillus subtilis DSM 347, Staphylococcus lentus DSM 6672, Propionibacterium acnes, Xanthomonas campestris, and Septoria tritici, as well as the cytotoxic activity against the cell lines HepG3 (hepatocellular carcinoma) and HT29 (colon adenocarcinoma) were assayed as described by Schneemann et al. [27].
# HepG2 = test: Cytotoxic activity against HepG2; format: cell-based; settings: test concentrations up to 50 μM
# Experimental: (§2) Antimicrobial activities of compounds 1 and 2 against Bacillus subtilis DSM 347, Staphylococcus lentus DSM 6672, Propionibacterium acnes, Xanthomonas campestris, and Septoria tritici, as well as the cytotoxic activity against the cell lines HepG3 (hepatocellular carcinoma) and HT29 (colon adenocarcinoma) were assayed as described by Schneemann et al. [27]. The effect on the growth of human pathogenic yeast, Candida albicans DSM 1386, was measured according to Ohlendorf et al. [28]. The activity of compound 2 against the dermatophyte Trichophyton mentagrophytes was tested as described by Nagel et al. [29].
# Propionibacterium acnes = test: Antimicrobial activity against Propionibacterium acnes; format: cell-based
# Experimental: as §1
# [2] = tested on: Bacillus subtilis DSM 347; test: Antimicrobial activity against Bacillus subtilis; format: cell-based; settings: concentrations of 100 μM (stated for 1)
# Experimental: as §1
# [3] = tested on: HT29 (colon adenocarcinoma); test: Cytotoxic activity against HT29; format: cell-based; settings: test concentrations up to 50 μM (stated for 1)
# Experimental: as §1
# [4] = tested on: Staphylococcus lentus DSM 6672; test: Antimicrobial activity against Staphylococcus lentus; format: cell-based; settings: concentrations of 100 μM (stated for 1)
# Experimental: as §1
# Septoria tritici = test: Antimicrobial activity against Septoria tritici; format: cell-based
# Experimental: as §2
# [5] = tested on: Candida albicans DSM 1386; test: Growth of human pathogenic yeast Candida albicans; format: cell-based; settings: concentrations of 100 μM
# Experimental: as §2
# [6] = target: T1, human recombinant protein tyrosine phosphatase 1B (PTP1B) (Homo sapiens, UniProt P18031); test: PTP1B inhibition assay with substrate IR5 (Biomol green phosphate detection); format: biochemical
# T1 construct: purchased Biomol SE332-0050
# Experimental: The effect of 1 and 2 on human recombinant protein tyrosine phosphatase 1B (PTP1B) was tested in microtiter plates. […] After warming for 10 min to the assay temperature of 30 °C 5 μL of human recombinant PTP1B (Biomol; CatNo. SE332-0050) stock solution (1 ng/μL) were added. The reaction was started with 50 μL of the substrate IR5 (insulin receptor amino acids 1142–1153 with pTyr at position 1146 (Biosyntan, Berlin, Germany) dissolved in PTP1B assay buffer to a concentration of 0.15 mM. The phosphopeptid IR5 comprises the amino acid sequence Thr-Arg-Asp-Ile-p[…]COOH and is part of the autophosphorylation domain of the insulin receptor (IR). After an incubation period of 25 min at 30°C the reaction was stopped by adding 150 μL of Biomol green (Biomol, CatNo. AK111-0250). PTP1B dephosphorylates the IR5 substrate resulting in the release of orthophosphate which was quantified after incubating for 20 min at 620 nm using the microtiter plate reader Infinite M200 (Tecan Group Ltd., Männedorf, Switzerland). […] IC50 values were determined as duplicates.
# [7] = tested on: dermatophytes, including Trichophyton rubrum; parameters: method as in PMID 5169000; settings: cited from earlier work
# Bacillus brevis = tested on: Bacillus brevis; parameters: method as in PMID 646581; settings: cited from earlier work
# [8] = tested on: etiolated wheat coleoptile; parameters: method as in PMID 8229019; settings: concentration of 1 mM; cited from earlier work
# Sarcina lutea = tested on: Sarcina lutea; parameters: method as in PMID 646581; settings: cited from earlier work
# [9] = tested on: Trichophyton mentagrophytes; test: Activity against the dermatophyte Trichophyton mentagrophytes; format: cell-based; settings: read-out: inhibition of T. mentagrophytes in comparison to the positive control clotrimazole, concentration of 100 μM
# Experimental: as §2
# Arthrobacter citreus = tested on: Arthrobacter citreus; parameters: method as in PMID 646581; settings: cited from earlier work
# Botrytis cinerea = tested on: Botrytis cinerea; parameters: method as in PMID 25517217; settings: cited from earlier work
# Rhizoctonia solani = tested on: Rhizoctonia solani; parameters: method as in PMID 5169000; settings: cited from earlier work
# [10] = tested on: Colletotrichum gleosporoides; parameters: method as in PMID 25517217; settings: cited from earlier work
# [11] = tested on: glycogen synthase kinase GSK-3 β; parameters: method as in PMID 27801816; settings: cited from earlier work
# PTP1B [12] = tested on: PTP1B; parameters: method as in earlier work; settings: substrate p-nitrophenyl phosphate; ref 13 (McCain et al.); read-out: IC50 value against PTP1B; cited from earlier work
# Micrococcus flavus = tested on: Micrococcus flavus; parameters: method as in PMID 5169000; settings: cited from earlier work
# [13] = parameters: method as in doi:10.1007/s11802-014-2216-2; settings: cited from earlier work
# T1 sequence (P18031 1-322 limits assumed): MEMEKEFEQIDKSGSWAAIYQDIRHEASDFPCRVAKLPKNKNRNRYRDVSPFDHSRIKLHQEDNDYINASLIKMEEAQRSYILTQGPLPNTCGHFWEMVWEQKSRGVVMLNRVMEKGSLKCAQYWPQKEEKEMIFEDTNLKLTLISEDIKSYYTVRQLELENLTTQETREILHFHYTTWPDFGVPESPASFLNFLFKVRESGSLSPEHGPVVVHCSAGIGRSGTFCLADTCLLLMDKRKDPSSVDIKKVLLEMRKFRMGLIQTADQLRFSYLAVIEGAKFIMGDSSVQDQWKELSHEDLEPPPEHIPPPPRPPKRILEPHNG
compound,measurement,setting,value
"CC(=O)C(C)c1oc(C)c(C)c(=O)c1C (stereo not shown) [2,3,5-trimethyl-6-(3-oxobutan-2-yl)-4H-pyran-4-one]",cytotoxic effects on P388,leukemia cell line P388,cytotoxic effects
"C/C=C/[C@H]1CC(=O)c2cc(C)c(O)c(C)c2O1 [(2R)-2,3-dihydro-7-hydroxy-6,8-dimethyl-2-[(E)-prop-1-enyl]chromen-4-one]",cytotoxic effects on P388,leukemia cell line P388,cytotoxic effects
"CCCCCCCCCCCCCCCC(=O)C1=C(O)[C@@H](CO)OC1=O [RK-682, (R)-4-Hydroxy-5-(hydroxymethyl)-3-(1-oxohexadecyl)-2(5H)-furanone]",IC50,PTP1B [1],4.5 µM
"CC1CCCC(CC2Cc3c(O)c(O)cc(O)c3C(=O)O2)O1 (stereo not shown) [compound 1, Asperentin B]",antibiotic activity against Xanthomonas campestris,Xanthomonas campestris,No antibiotic activity; also recorded: did not exhibit
same,cytotoxic effects against HepG2,HepG2,No activities were not found
same,inhibition at 100 µM,"Propionibacterium acnes; Cutibacterium acnes, 100 μM test concentration",57%
same,antibiotic activity against Bacillus subtilis,[2],No antibiotic activity; also recorded: did not exhibit
same,cytotoxic effects against HT29,[3],did not exhibit cytotoxic activities
same,antibiotic activity against Staphylococcus lentus,[4],No antibiotic activity; also recorded: did not exhibit
same,antibiotic activity against Septoria tritici (in words),Septoria tritici; concentrations of 100 μM,No antibiotic activity
same,antibiotic activity against Candida albicans,[5],No antibiotic activity
same,IC50,"[6]; in vitro, duplicates, read-out: IC50 value against PTP1B",2.05 µM and 2 µM
"C[C@H]1CCC[C@H](C[C@H]2Cc3cc(O)cc(O)c3C(=O)O2)O1 [compound 2, asperentin]","minimum inhibitory concentration (MIC), five dermatophytes including Trichophyton rubrum",[7],75 µg/mL
same,"MIC, Bacillus brevis",Bacillus brevis,0.05 µg/mL
same,antibiotic activity against Xanthomonas campestris,Xanthomonas campestris,did not exhibit
same,"growth inhibition, etiolated wheat coleoptile assay",[8],81%
same,"MIC, Sarcina lutea",Sarcina lutea,2000 µg/mL
same,inhibition at 100 µM,[9],100%
same,"MIC, Arthrobacter citreus",Arthrobacter citreus,1 µg/mL
same,activity against Botrytis cinerea,Botrytis cinerea,active
same,activity against P. acnes (in words),Propionibacterium acnes,did not show any activity
same,antibiotic activity against Bacillus subtilis,[2],did not exhibit; also recorded: not inhibited
same,cytotoxic effects against HT29,[3],did not exhibit cytotoxic activities
same,antibiotic activity against Staphylococcus lentus,[4],did not exhibit
same,"minimum inhibitory concentration (MIC), Rhizoctonia solani",Rhizoctonia solani,75 µg/mL
same,inhibition at 100 µM,"Septoria tritici; Zymoseptoria tritici, read-out: inhibition of S. tritici in comparison to the positive control clotrimazole, concentration of 100 μM",83%
same,inhibition of PTP1B enzymatic activity (in words),[6],did not show any activity; also recorded: did not show any inhibition
same,activity against Colletotrichum gleosporoides,[10],active
"C[C@H]1CCC[C@@H](C[C@H]2Cc3cc(O)cc(O)c3C(=O)O2)O1 [isoasperentin, reference compound]","growth inhibition, etiolated wheat coleoptile assay",[8],100%
Cc1cc2cc(O)cc(O)c2c2oc(=O)cc(O)c12 [pannorin],inhibition of GSK-3 β (in words),[11],inhibitor
Cc1ccc(C(=O)Nc2ccc(S(=O)(=O)O)c3cc(S(=O)(=O)O)cc(S(=O)(=O)O)c23)cc1NC(=O)c1cccc(NC(=O)Nc2cccc(C(=O)Nc3cc(C(=O)Nc4ccc(S(=O)(=O)O)c5cc(S(=O)(=O)O)cc(S(=O)(=O)O)c45)ccc3C)c2)c1 [suramin],IC50,PTP1B [12],11 µM
Monoacetyl asperentin [reference compound],"MIC, four dermatophytes including Trichophyton rubrum",[7],75 µg/mL
same,"MIC, Micrococcus flavus",Micrococcus flavus,75 µg/mL
brevianamide W,antioxidant activity,[13],antioxidant activity
dimethyl asperentin [reference compound],"MIC, Bacillus brevis",Bacillus brevis,10 µg/mL
same,"MIC, Sarcina lutea",Sarcina lutea,> 100 µg/mL
same,"MIC, Arthrobacter citreus",Arthrobacter citreus,> 100 µg/mL
